# Source: ChEMBL document CHEMBL2401728, “An unexpected Dimroth rearrangement leading to annelated thieno[3,2-d][1,2,3]triazolo[1,5-a]pyrimidines with potent antitumor activity” (Eur J Med Chem, 2013)
# Tests used:
# Format in all cases: functional
# SNB-75 [1] = assay: Cytotoxicity against human SNB75 cells after 48 hrs by SRB assay; details: SNB-75, 48 h
# MCF7 = assay: Cytotoxicity against human MCF7 cells assessed as cellular growth at 100 uM after 48 hrs by SRB assay relative to control
# SF-268 = assay: Cytotoxicity against human SF268 cells assessed as cellular growth at 100 uM after 48 hrs by SRB assay relative to control
# CCRF-CEM = assay: Cytotoxicity against human CCRF-CEM cells assessed as cellular growth at 100 uM after 48 hrs by SRB assay relative to control
# T47D = assay: Cytotoxicity against human T47D cells assessed as cellular growth at 0.1 uM after 48 hrs by SRB assay relative to control
# RXF 393 = assay: Cytotoxicity against human RXF393 cells assessed as cellular growth at 0.1 uM after 48 hrs by SRB assay relative to control
# NCI-H522 = assay: Cytotoxicity against human NCI-H522 cells assessed as cellular growth at 0.1 uM after 48 hrs by SRB assay relative to control
# NCI-H460 [2] = assay: Cytotoxicity against human NCI-H460 cells after 48 hrs by SRB assay; details: NCI-H460, 48 h
# ACHN = assay: Cytotoxicity against human ACHN cells assessed as cellular growth at 100 uM after 48 hrs by SRB assay relative to control
# A498 [3] = assay: Cytotoxicity against human A498 cells assessed as cellular growth at 100 uM after 48 hrs by SRB assay relative to control
# HCT-116 = assay: Cytotoxicity against human HCT116 cells after 48 hrs by SRB assay; details: HCT-116, 48 h
# TK-10 [4] = assay: Cytotoxicity against human TK10 cells assessed as cellular growth at 100 uM after 48 hrs by SRB assay relative to control
# NCI-H460 [5] = assay: Cytotoxicity against human NCI-H460 cells assessed as cellular growth at 0.01 uM after 48 hrs by SRB assay relative to control
# KM12 = assay: Cytotoxicity against human KM12 cells assessed as cellular growth at 0.1 uM after 48 hrs by SRB assay relative to control
# MDA-MB-435 [6] = assay: Cytotoxicity against human MDA-MB-435 cells assessed as cellular growth at 0.1 uM after 48 hrs by SRB assay relative to control
# BT-549 = assay: Cytotoxicity against human BT549 cells assessed as cellular growth at 0.01 uM after 48 hrs by SRB assay relative to control
# 786-0 = assay: Cytotoxicity against human 786-0 cells assessed as cellular growth at 10 uM after 48 hrs by SRB assay relative to control
# UACC-62 = assay: Cytotoxicity against human UACC62 cells after 48 hrs by SRB assay; details: UACC-62, 48 h
# A549 = assay: Cytotoxicity against human A549 cells assessed as cellular growth at 0.1 uM after 48 hrs by SRB assay relative to control
# SN12C = assay: Cytotoxicity against human SN12C cells assessed as cellular growth at 0.01 uM after 48 hrs by SRB assay relative to control
# SF-295 [7] = assay: Cytotoxicity against human SF295 cells after 48 hrs by SRB assay; details: SF-295, 48 h
# OVCAR-4 = assay: Cytotoxicity against human OVCAR4 cells after 48 hrs by SRB assay; details: OVCAR-4, 48 h
# SF-295 [8] = assay: Cytotoxicity against human SF295 cells assessed as cellular growth at 1 uM after 48 hrs by SRB assay relative to control
# DU-145 [9] = assay: Cytotoxicity against human DU145 cells after 48 hrs by SRB assay; details: DU-145, 48 h
# SF-295 [10] = assay: Cytotoxicity against human SF295 cells assessed as cellular growth at 0.01 uM after 48 hrs by SRB assay relative to control
# OVCAR-5 = assay: Cytotoxicity against human OVCAR5 cells assessed as cellular growth at 100 uM after 48 hrs by SRB assay relative to control
# MDA-MB-435 [11] = assay: Cytotoxicity against human MDA-MB-435 cells assessed as cellular growth at 0.01 uM after 48 hrs by SRB assay relative to control
# OVCAR-8 = assay: Cytotoxicity against human OVCAR8 cells assessed as cellular growth at 100 uM after 48 hrs by SRB assay relative to control
# SF-539 = assay: Cytotoxicity against human SF539 cells assessed as cellular growth at 0.1 uM after 48 hrs by SRB assay relative to control
# SR = assay: Cytotoxicity against human SR cells assessed as cellular growth at 0.01 uM after 48 hrs by SRB assay relative to control
# NCI-H226 = assay: Cytotoxicity against human NCI-H226 cells after 48 hrs by SRB assay; details: NCI-H226, 48 h
# A498 [12] = assay: Cytotoxicity against human A498 cells assessed as cellular growth at 0.01 uM after 48 hrs by SRB assay relative to control
# SNB-75 [13] = assay: Cytotoxicity against human SNB75 cells assessed as cellular growth at 1 uM after 48 hrs by SRB assay relative to control
# DU-145 [14] = assay: Cytotoxicity against human DU145 cells assessed as cellular growth at 0.1 uM after 48 hrs by SRB assay relative to control
# TK-10 [15] = assay: Cytotoxicity against human TK10 cells assessed as cellular growth at 1 uM after 48 hrs by SRB assay relative to control
# [16] = read-out: LC50 (the source's name)
# [17] = read-out: pLC50 (the source's name) (converted)
structure (smiles),measurement,setting,value
CN1CCN(CCCn2c3c(sc4ncccc43)c(=O)n3nnc(-c4ccccc4)c23)CC1,GI50,SNB-75 [1]; read-out: GI50,7.71 µM
same,CC50,SNB-75 [1]; [16],48.8 µM
same,TGI,SNB-75 [1]; read-out: TGI,21.7 µM
same,GI50,SNB-75 [1]; read-out: pGI50 (converted),7.76 µM
same,CC50,SNB-75 [1]; [17],49 µM
same,TGI,SNB-75 [1]; read-out: pTGI (converted),21.9 µM
same,Activity,MCF7,-79%
same,Activity,SF-268,-86%
same,Activity,CCRF-CEM,-49%
same,Activity,T47D,100%
same,Activity,RXF 393,93%
same,Activity,NCI-H522,97%
same,GI50,NCI-H460 [2]; read-out: GI50,1.92 µM
same,CC50,NCI-H460 [2]; [16],8.13 µM
same,TGI,NCI-H460 [2]; read-out: TGI,3.95 µM
same,GI50,NCI-H460 [2]; read-out: pGI50 (converted),1.91 µM
same,CC50,NCI-H460 [2]; [17],8.13 µM
same,TGI,NCI-H460 [2]; read-out: pTGI (converted),3.98 µM
same,Activity,ACHN,-80%
same,Activity,A498 [3],-92%
same,GI50,HCT-116; read-out: GI50,1.71 µM
same,CC50,HCT-116; [16],6.96 µM
same,TGI,HCT-116; read-out: TGI,3.45 µM
same,GI50,HCT-116; read-out: pGI50 (converted),1.7 µM
same,CC50,HCT-116; [17],6.92 µM
same,TGI,HCT-116; read-out: pTGI (converted),3.47 µM
same,Activity,TK-10 [4],-47%
same,Activity,NCI-H460 [5],102%
same,Activity,KM12,94%
same,Activity,MDA-MB-435 [6],99%
same,Activity,BT-549,99%
same,Activity,786-0,-84%
same,GI50,UACC-62; read-out: GI50,16.6 µM
same,CC50,UACC-62; [16],71 µM
same,TGI,UACC-62; read-out: TGI,34.3 µM
same,GI50,UACC-62; read-out: pGI50 (converted),16.6 µM
same,CC50,UACC-62; [17],70.8 µM
same,TGI,UACC-62; read-out: pTGI (converted),34.7 µM
same,Activity,A549,95%
same,Activity,SN12C,97%
same,GI50,SF-295 [7]; read-out: GI50,1.96 µM
same,CC50,SF-295 [7]; [16],6.96 µM
same,TGI,SF-295 [7]; read-out: TGI,3.7 µM
same,GI50,SF-295 [7]; read-out: pGI50 (converted),1.95 µM
same,CC50,SF-295 [7]; [17],6.92 µM
same,TGI,SF-295 [7]; read-out: pTGI (converted),3.72 µM
same,GI50,OVCAR-4; read-out: GI50,1.87 µM
same,CC50,OVCAR-4; [16],8.04 µM
same,TGI,OVCAR-4; read-out: TGI,3.88 µM
same,GI50,OVCAR-4; read-out: pGI50 (converted),1.86 µM
same,CC50,OVCAR-4; [17],8.13 µM
same,TGI,OVCAR-4; read-out: pTGI (converted),3.89 µM
same,Activity,SF-295 [8],103%
same,GI50,DU-145 [9]; read-out: GI50,1.85 µM
same,CC50,DU-145 [9]; [16],7.24 µM
same,TGI,DU-145 [9]; read-out: TGI,3.66 µM
same,GI50,DU-145 [9]; read-out: pGI50 (converted),1.86 µM
same,CC50,DU-145 [9]; [17],7.24 µM
same,TGI,DU-145 [9]; read-out: pTGI (converted),3.63 µM
same,Activity,SF-295 [10],106%
same,Activity,OVCAR-5,-44%
same,Activity,MDA-MB-435 [11],101%
same,Activity,OVCAR-8,-15%
same,Activity,SF-539,89%
same,Activity,SR,100%
same,GI50,NCI-H226; read-out: GI50,13.9 µM
same,CC50,NCI-H226; [16],64.2 µM
same,TGI,NCI-H226; read-out: TGI,29.8 µM
same,GI50,NCI-H226; read-out: pGI50 (converted),13.8 µM
same,CC50,NCI-H226; [17],64.6 µM
same,TGI,NCI-H226; read-out: pTGI (converted),29.5 µM
same,Activity,A498 [12],67%
same,Activity,SNB-75 [13],66%
same,Activity,DU-145 [14],98%
same,Activity,TK-10 [15],119%
